In US6481154B1, “Method of large-scale propagation of trees of genus Swietenia” (Sumitomo Forestry Co., Ltd., priority 2000, dated 2002):

How the values were obtained:
[1] = system: single shoots of Swietenia macrophylla; experiment: Rooting of single shoots on modified B5 rooting medium; format: cell-based
Protocol: A large number of shoots obtained in (4) are cut to single shoots, which were then transplanted to a rooting medium. […] Culturing temperature was 26±2° C. under illumination of fluorescent lamps for 16 hours per day (3,000 to 9,000 Lux).

[2] = system: single shoots of Swietenia macrophylla; experiment: Rooting conditions (4): modified B5, then modified MS, then modified B5, one month each; format: cell-based
Protocol: A large number of shoots obtained in (4) were cut to single shoots which were cultured in the following procedures:
(4) The single shoots were cultured on a modified B5 medium containing 0 to 10.0 mg/l of IBA for one month, then on a modified MS medium containing 0 to 10.0 mg/l of IBA for one month and further on a modified B5 medium containing 0 to 10.0 mg/l of IBA for one month.
All the above (1)-(4) cultures were conducted under conditions wherein a temperature was 26±2° C., a humidity was 60 to 90% and a light intensity was 3,000 to 9,000 Lux. Further, all the modified media in the above (1)-(4) contained 2.8 g/l of gelright.

O=C(O)CCCc1c[nH]c2ccccc12 [IBA, 3-indole butyric acid]
88.5%: Withering rate (%) For second one month ([2]; IBA 0.1 mg/l)
70.0%: Withering rate (%) For third one month ([2]; IBA 1.0 mg/l) | Withering rate (%) For third one month ([2]; IBA 3.0 mg/l) | Withering rate (%) For second one month ([2]; IBA 4.0 mg/l) | Withering rate (%) For first one month ([2]; IBA 10.0 mg/l)
30.0%: Rooting rate (%) For second one month ([2]; IBA 2.5 mg/l)
effective: effectiveness for rooting ([1]; 2.5 mg/l of IBA)
0/26: Number of rooted single shoots ([1]; IBA 3.0 mg/l) | Number of rooted single shoots ([1]; IBA 5.0 mg/l) | Number of rooted single shoots ([1]; IBA 10.0 mg/l)
50.0%: Withering rate (%) For second one month ([2]; IBA 1.0 mg/l) | Withering rate (%) For third one month ([2]; IBA 2.0 mg/l) | Rooting rate (%) For third one month ([2]; IBA 2.5 mg/l) | Withering rate (%) For first one month ([2]; IBA 5.0 mg/l)
100.0%: Withering rate (%) For third one month ([2]; IBA 0.1 mg/l) | Withering rate (%) For third one month ([2]; IBA 4.0 mg/l) | Withering rate (%) For third one month ([2]; IBA 5.0 mg/l) | Withering rate (%) For second one month ([2]; IBA 10.0 mg/l) | Withering rate (%) For third one month ([2]; IBA 10.0 mg/l)
2/30: Number of rooted single shoots ([1]; IBA 2.0 mg/l)
40.0%: Withering rate (%) For second one month ([2]; IBA 2.0 mg/l) | Withering rate (%) For second one month ([2]; IBA 2.5 mg/l) | Withering rate (%) For third one month ([2]; IBA 2.5 mg/l) | Withering rate (%) For first one month ([2]; IBA 4.0 mg/l)
90.0%: Withering rate (%) For second one month ([2]; IBA 5.0 mg/l)
0.0%: Rooting rate (%) For first one month ([2]; IBA 0.1 mg/l) | Rooting rate (%) For second one month ([2]; IBA 0.1 mg/l) | Rooting rate (%) For third one month ([2]; IBA 0.1 mg/l) | Rooting rate (%) For first one month ([2]; IBA 1.0 mg/l) | Rooting rate (%) For second one month ([2]; IBA 1.0 mg/l) | Rooting rate (%) For first one month ([2]; IBA 2.0 mg/l) | Withering rate (%) For first one month ([2]; IBA 2.0 mg/l) | Rooting rate (%) For first one month ([2]; IBA 2.5 mg/l) | Withering rate (%) For first one month ([2]; IBA 2.5 mg/l) | Rooting rate (%) For first one month ([2]; IBA 3.0 mg/l) | Withering rate (%) For first one month ([2]; IBA 3.0 mg/l) | Rooting rate (%) For first one month ([2]; IBA 4.0 mg/l) | Rooting rate (%) For second one month ([2]; IBA 4.0 mg/l) | Rooting rate (%) For third one month ([2]; IBA 4.0 mg/l) | Rooting rate (%) For first one month ([2]; IBA 5.0 mg/l) | Rooting rate (%) For second one month ([2]; IBA 5.0 mg/l) | Rooting rate (%) For third one month ([2]; IBA 5.0 mg/l) | Rooting rate (%) For first one month ([2]; IBA 10.0 mg/l) | Rooting rate (%) For second one month ([2]; IBA 10.0 mg/l) | Rooting rate (%) For third one month ([2]; IBA 10.0 mg/l)
5/27: Number of rooted single shoots ([1]; IBA 2.5 mg/l)
20.0%: Rooting rate (%) For third one month ([2]; IBA 3.0 mg/l)
1/27: Number of rooted single shoots ([1]; IBA 1.0 mg/l)
18.5%: single shoots rooted ([1]; 1.0 to 5.0 mg/l of IBA, one to two months after the start of culturing)
84.6%: Withering rate (%) For first one month ([2]; IBA 0.1 mg/l)
60.0%: Withering rate (%) For second one month ([2]; IBA 3.0 mg/l)
1/25: Number of rooted single shoots ([1]; IBA 4.0 mg/l)
10.0%: Rooting rate (%) For third one month ([2]; IBA 1.0 mg/l) | Withering rate (%) For first one month ([2]; IBA 1.0 mg/l) | Rooting rate (%) For second one month ([2]; IBA 2.0 mg/l) | Rooting rate (%) For third one month ([2]; IBA 2.0 mg/l) | Rooting rate (%) For second one month ([2]; IBA 3.0 mg/l)
